These results are taken from patent publication US9169307B2 (The Trustees of the University of Pennsylvania, priority 2005, dated 2015).

The subject of assay [1] is activation of the complement system by immunocomplexes (C3b/iC3b deposition). Nature of the assay: Complement inhibition assay (ELISA): inhibition of C3 fixation to ovalbumin-anti-ovalbumin complexes in normal human plasma. Format: biochemical. Conditions: for Activity over compstatin: Table 1B, exemplary analogs described herein; for Relative activity: Table 2, relative to the activity of compstatin (SEQ ID NO: 1); for complement inhibitory activity (in words): at the concentrations tested; for amount of conjugate required to achieve the same inhibition as Ac-V4(1-methyl-W)/H9A: relative to Ac-V4(1-methyl-W)/H9A (SEQ ID NO:23). How it is done: Complement activation inhibition was assessed by measuring the inhibition of C3 fixation to ovalbumin-anti-ovalbumin complexes in normal human plasma. Microtiter wells were coated with 50 μl of ovalbumin (10 mg/ml) for 2 hr at 25° C. (overnight at 4° C.). The wells were saturated with 200 μl of 10 mg/ml BSA for 1 hr at 25° C. and then a rabbit anti-ovalbumin antibody was added to form an immunocomplex by which complement can be activated. Thirty microliters of peptides at various concentrations were added directly to each well followed by 30 μl of a 1:80 dilution of human plasma. After 30 min incubation, bound C3b/iC3b was detected using a goat anti-human C3 HRP-conjugated antibody. Color was developed by adding ABTS peroxidase substrate and optical density measured at 405 nm.
The % inhibition was plotted against the peptide concentration, and the resulting data set was fit to the logistic dose-response function using Origin 7.0 software. […] IC50 values were obtained from the fitted parameters that achieved the lowest chi-square value.

Assay [2] has the same test system. Conditions: cited from earlier work; for Activity over compstatin: Table 1A, previously described analogs (WO2004/026328).
Assay [3] relates to alternative pathway-mediated erythrocyte lysis. Conditions: cited from earlier work.
In a further assay the target is C3 (Homo sapiens, UniProt P01024). Kind of assay: Isothermal titration calorimetry of the interaction of C3 with compstatin analogs. Format: binding. The method, then: Isothermal titration calorimetry experiments were performed using the Microcal VP-ITC calorimeter (Microcal Inc, Northampton, Mass.). Protein concentrations of 3.5-5 μM and peptide concentrations of 80-200 μM were used for these experiments. All titrations were performed in PBS (10 mM phosphate buffer with 150 mM NaCl, pH 7.4). In each experiment, the target protein, C3, was loaded into the cell, and peptide was loaded into the syringe. All experiments were performed at 25° C. and for each experiment, 2-μl peptide injections were made into the cell containing the protein. In each experiment, the raw isotherms were corrected for the heats of dilution by subtracting the isotherms representing peptide injections into the buffer. The resulting isotherms were fit to various models within the Origin 7.0 software, and the model that achieved the lowest chi square value was deemed to be appropriate for the respective dataset. Binding affinity and entropy values were plotted against log P values.

Setting [4] is: relative to Ac-V4W/H9A (SEQ ID NO:5).

pIC50: −log10 of the molar value. Where two headings read alike, the source gives them in different places. Bridges are numbered along the chain shown (N, C = ends). [ ]: non-standard residue; d: D form. Trp(5-F) = N[C@@H](Cc1c[nH]c2ccc(F)cc12)C(=O)O; Trp(6-F) = N[C@@H](Cc1c[nH]c2cc(F)ccc12)C(=O)O

Chain of C3 (P01024 23-1663): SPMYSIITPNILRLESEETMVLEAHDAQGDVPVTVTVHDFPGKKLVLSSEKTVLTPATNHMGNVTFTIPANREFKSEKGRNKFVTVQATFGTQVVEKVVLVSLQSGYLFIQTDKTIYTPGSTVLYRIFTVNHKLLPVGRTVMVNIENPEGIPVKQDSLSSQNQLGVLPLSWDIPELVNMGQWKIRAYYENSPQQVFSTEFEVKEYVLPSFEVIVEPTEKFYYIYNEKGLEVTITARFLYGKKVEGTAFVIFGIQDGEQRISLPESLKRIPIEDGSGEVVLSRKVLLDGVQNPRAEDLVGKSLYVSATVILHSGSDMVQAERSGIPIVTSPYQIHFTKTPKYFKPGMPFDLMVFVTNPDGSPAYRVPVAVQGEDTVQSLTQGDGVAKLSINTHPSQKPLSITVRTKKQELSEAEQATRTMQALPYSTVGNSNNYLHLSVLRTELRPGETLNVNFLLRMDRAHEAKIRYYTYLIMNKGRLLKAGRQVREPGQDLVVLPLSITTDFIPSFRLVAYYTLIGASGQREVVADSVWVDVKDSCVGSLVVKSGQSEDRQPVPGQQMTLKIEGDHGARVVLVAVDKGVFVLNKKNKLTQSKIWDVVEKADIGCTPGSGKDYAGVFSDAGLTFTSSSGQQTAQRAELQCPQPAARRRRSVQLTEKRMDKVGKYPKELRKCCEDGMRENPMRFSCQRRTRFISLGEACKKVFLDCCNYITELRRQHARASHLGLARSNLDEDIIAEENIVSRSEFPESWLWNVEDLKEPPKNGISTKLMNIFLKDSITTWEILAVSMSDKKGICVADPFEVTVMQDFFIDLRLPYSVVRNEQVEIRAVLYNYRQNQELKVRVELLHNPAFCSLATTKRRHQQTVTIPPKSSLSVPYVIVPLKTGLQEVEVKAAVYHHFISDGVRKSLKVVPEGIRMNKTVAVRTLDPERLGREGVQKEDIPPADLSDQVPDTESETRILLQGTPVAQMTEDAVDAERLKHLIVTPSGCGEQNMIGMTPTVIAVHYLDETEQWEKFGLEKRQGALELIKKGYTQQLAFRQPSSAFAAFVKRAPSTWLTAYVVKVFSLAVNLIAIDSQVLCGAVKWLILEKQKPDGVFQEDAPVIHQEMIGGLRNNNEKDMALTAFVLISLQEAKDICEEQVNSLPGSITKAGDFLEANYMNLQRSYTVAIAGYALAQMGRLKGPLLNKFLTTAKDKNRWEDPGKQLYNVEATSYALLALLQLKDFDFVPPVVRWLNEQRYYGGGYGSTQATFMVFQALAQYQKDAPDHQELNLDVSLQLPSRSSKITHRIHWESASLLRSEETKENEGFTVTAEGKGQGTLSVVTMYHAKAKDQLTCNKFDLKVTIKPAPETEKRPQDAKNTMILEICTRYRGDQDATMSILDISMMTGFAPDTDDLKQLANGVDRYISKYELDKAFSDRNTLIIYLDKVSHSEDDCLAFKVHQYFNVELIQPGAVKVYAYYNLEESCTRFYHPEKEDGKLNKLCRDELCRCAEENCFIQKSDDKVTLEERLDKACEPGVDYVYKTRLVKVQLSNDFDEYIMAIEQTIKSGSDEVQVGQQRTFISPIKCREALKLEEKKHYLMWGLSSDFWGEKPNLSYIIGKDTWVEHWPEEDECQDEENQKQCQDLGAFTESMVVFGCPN

Take “H-GICV(6f-l-W)QD(6f-l-W)GAHRCTN-COOH (H-GICV[Trp(6-F)]QD[Trp(6-F)]GAHRCTN-OH; disulfide 3-13 (inferred)) [G(−1)/V4(6fW)/W7(6fW)/H9A/N14, bacterially expressed compstatin analog]”: in assay [1], the Activity over compstatin was 126 × more and the Relative activity came to 126. Besides, the pIC50 in assay [1] (Table 2, expressed peptides) is 6.37. Moreover, in assay [1] (setting [4]), the “fold higher activity than Ac-V4W/H9A” value is given as 2.8 fold.
Regarding “Ac-ICV(2-Igl)QDWGAHRCT-CONH2 [Ac-V4Igl/H9A]”, in assay [2], the Activity over compstatin is on record as 39 × more.
Turning to “Ac-ICV(2-Nal)QDWGAHRCT-COOH [Ac V4(2-Nal)/H9A −OH]”, the Activity over compstatin in assay [2] was 39 × more.
As to “Ac-V4(1-methyl-W)/H9A-K-PEG 5000: Ac-V4(1-methyl-W)/H9A with C-terminal lysine whose side chain is linked to PEG 5000 (ICVWQDWGAHRCTK; N-acetyl; 1-methyl-Trp at 4; C-terminal Lys-PEG5000)”, in assay [1], the “complement inhibitory activity (in words)” value was “active in inhibiting complement activation” and the “amount of conjugate required to achieve the same inhibition as Ac-V4(1-methyl-W)/H9A” value was “seven-fold more conjugate was required”.
For “Ac-ICV(1-Nal)QDWGAHRCT-COOH [Ac V4(1-Nal)/H9A −OH]”, in assay [2], the Activity over compstatin is 30 × more.
Take `CC[C@H](C)[C@H](N)C(=O)N[C@H]1CSSC[C@@H](C(=O)N[C@H](C(N)=O)[C@@H](C)O)NC(=O)[C@H](CCCN=C(N)N)NC(=O)[C@H](Cc2cnc[nH]2)NC(=O)[C@H](Cc2cnc[nH]2)NC(=O)CNC(=O)[C@H](Cc2c[nH]c3ccccc23)NC(=O)[C@H](CC(=O)O)NC(=O)[C@H](CCC(N)=O)NC(=O)[C@H](C(C)C)NC(=O)[C@H](C(C)C)NC1=O` [Compstatin]: the negative-log IC50 (pIC50) in assay [3] was 4.92.
Regarding “Ac-ICVDhtQDWGAHRCT-COOH [Ac-V4Dht/H9A −OH]”, in assay [2], the Activity over compstatin is on record as 5 × more.
Consider “GICVWQDWGAHRCTN [G(−1)/V4(5-OH-W)/W7(5-OH-W)/H9A/N14]”, for which the pIC50 in assay [1] (Table 2, expressed peptides) was 4.48. Further, in assay [1], the Relative activity amounted to 1.6. The “fold loss in activity / times less active compared to Ac-V4W/H9A” value in assay [1] (setting [4]) was determined as 27.5 fold.
In assay [1], “GICVWQDWGAHRCTN [G(−1)/V4W/H9A/N14, bacterially expressed compstatin analog]” yielded an Activity over compstatin of 45 × more and a Relative activity of 45. Moreover, the negative logarithm of the IC50 (pIC50) in assay [1] (Table 2, expressed peptides) was 5.92.
Turning to `CC[C@H](C)[C@H](NC(C)=O)C(=O)N[C@H]1CSSC[C@@H](C(=O)N[C@H](C(N)=O)[C@@H](C)O)NC(=O)[C@H](CCCNC(=N)N)NC(=O)[C@H](Cc2c[nH]cn2)NC(=O)[C@H](C)NC(=O)CNC(=O)[C@H](Cc2c[nH]c3ccccc23)NC(=O)[C@H](CC(=O)O)NC(=O)[C@H](CCC(N)=O)NC(=O)[C@H](Cc2ccc3ccccc3c2)NC(=O)[C@H](C(C)C)NC1=O` [Ac-V4(2-Nal)/H9A], the Activity over compstatin in assay [2] is on record as 99 × more. At C3 (Table 6, ITC, 25° C.), the ΔG is -9.5 kcal/mol and the “−TΔS” value was determined as 4.8 kcal/mol. At C3 (Table 6, relative to Wild-type), the ΔΔG was -0.1 kcal/mol, the ΔΔH came to 3.87 kcal/mol and the “−TΔΔS” value was -3.99 kcal/mol. For the same compound, the negative logarithm of the IC50 (pIC50) in assay [1] (Table 5) was 6.26.
Ac-ICVVQDWGHHRCT-CONH2 [Ac-compstatin]: the Activity over compstatin in assay [2] is given as 3 × more.
In assay [1], “H-GICV(5f-l-W)QD(5f-l-W)GAHRCTN-COOH (H-GICV[Trp(5-F)]QD[Trp(5-F)]GAHRCTN-OH; disulfide 3-13 (inferred)) [G(−1)/V4(5fW)/W7(5fW)/H9A/N14, bacterially expressed compstatin analog]” yielded an Activity over compstatin of 112 × more and a Relative activity of 112. In assay [1] (Table 2, expressed peptides), this compound gave a pIC50 of 6.32. For the same compound, the “fold higher activity than Ac-V4W/H9A” value in assay [1] (setting [4]) amounted to 2.5 fold.
On to “Ac-ICV(Bpa)QDWGAHRCT-COOH [Ac-V4(Bpa)/H9A −OH]”, for which the Activity over compstatin in assay [2] was 49 × more. The “fold greater activity than compstatin” value in assay [2] (analogs disclosed in WO2004/026328) is 49 fold.
Regarding “Ac-ICV(2-Igl)QDWGAHRCT-COOH [Ac-V4Igl/H9A −OH]”, the Activity over compstatin in assay [2] was 37 × more.
Turning to “Ac-ICV(1MeW)QDWGAHRCTRLIEDICLPRWGCLWEDD-NH2 [Albumin-binding peptide-compstatin]”, in assay [1], the “complement inhibitory activity (in words)” value is “active in inhibiting complement activation” and the “amount of conjugate required to achieve the same inhibition as Ac-V4(1-methyl-W)/H9A” value is recorded as “seven-fold more conjugate was required”.
Regarding “Ac-ICVYQDWGAHRCT-CONH2 (Ac-ICVYQDWGAHRCT-NH2; disulfide 2-12 (inferred)) [Ac-V4Y/H9A]”, the Activity over compstatin in assay [2] is 19 × more.
